Experimental data taken from US8258295B2, “Triazine derivatives, compositions containing such derivatives, and methods of treatment of cancer and autoimmune diseases using such derivatives” (Prometic Biosciences Inc., priority 2007, dated 2012).

Key:
PC-3 cells = assay: In vitro PC-3 cell migration or invasion assay (EGF-induced); assay type: cell-based, human; details: mitomycin C treated cells, 24 hr
Protocol: An in vitro migration assay was used to assess cell mobility in two dimensions. PC-3 cells were plated on a 12-well plate and grown to confluence in RPMI+10% FBS. A rubber policeman was used to create a denuded area. Confluent cells were quiesced by mitomycin C treatment (0.5 μM) at the concentration used to prevent the confounding issue of cell proliferation and protein synthesis. These cells were also incubated in the presence or absence of […] growth factor (EGF) and compound for 24 hr, then they were photographed.
The effects of EGF and compound V on PC-3 cell migration or invasion in the in vitro migration assay were determined. EGF promotes the migration or invasion of PC-3 cells treated with mitomycin compared to control (i.e., no added EGF).

[1] = test system: LPS-induced inflammation in the rat air-pouch model; assay: LPS-induced inflammation in rat air-pouch model; assay type: in vivo, rats; details: IV; for PGE2 production induced by LPS / TNFα production induced by LPS / LTB4 production induced by LPS / MCP-1 production induced by LPS: pouch exudate; for LTB4 production induced by LPS: FIG. 20C; for MCP-1 production induced by LPS: FIG. 20D; for white blood cell count: two hours after LPS induction, FIG. 19
Description: LPS-induced inflammation in the rat air-pouch model is believed to mimic the pathological process occurring in joint diseases such as arthritis. This is because the connective tissues formed along the air pouch are similar to those found in chronic joint diseases. LPS-induced inflammation and chronic joint diseases share other features, including markedly elevated PGE2, neutrophil infiltration, cytokine formation, and tissue damage.
An air cavity was produced at day −6 by subcutaneous injection of 20 ml of sterile air into the intrascapular area of the back of male Lewis rats (175 to 200 g). An additional 10 ml of air was injected into the cavity at day −3 to keep the space open. At day 0, compounds were administered intravenously and one hour later lipopolysaccharide (LPS: 2.5 ml of 2 μg/ml in PBS) was injected into the pouch to produce an inflammatory reaction. […] The pouch fluid was collected. The volume of exudates was measured and the number of leukocytes present in the exudates was determined with a Coulter counter. The differential count was determined by Wright-Giemsa staining. PGE2, LTB4, MCP, and TNFα were determined in the pouch exudates by specific ELISAs.

PGE2 production = assay: LPS-induced PGE2 production in J774A.1 cells (ELISA); assay type: cell-based; details: Mus musculus, J774.A1, 24 hr, FIG. 11
Protocol: (§1) Effect of compounds on PGE2 production was measured by ELISA using J774A.1 cells stimulated by LPS. J774A.1 cells were cultured in the presence or absence of LPS and compound. Cells were cultured for 24 hr at 37° C. and thereafter the supernatants were collected for the determination of the concentration of PGE2 by ELISA as recommended by the manufacturer (GE Healthcare). Data was analyzed in Microsoft Excel software and the concentration of compound which inhibits 50% of PGE2 production (IC50) was calculated using Prism software.

B16F10 melanoma = assay: Primary B16F10 melanoma tumor in mice; assay type: in vivo; details: C57BL/6 mice, IV on day 14, 16, 18; FIG. 2A/2B
Protocol: Female 6-8 week old C57BL/6 mice were injected intradermally on day 0 with 50 μl of 3.75×10^4 viable B16F10 melanoma cells from ATCC (source of cell culture, Dr. I. J. Fidler). On day 14, tumors reached […] and animals were randomized for treatments. Animals were then injected IV with saline (negative control) or compound (5 mg/kg, 25 mg/kg, or 50 mg/kg) on day 14, day 16, and day 18 or 10 mg/kg doxorubicin (positive control) on day 14. Mice were sacrificed on day 29. Body weight and tumor volume were recorded. Serial tumor volume was obtained by bi-dimensional diameter measurements with calipers, using the formula 0.4 (a×b^2) where “a” was the major tumor diameter and “b” the minor perpendicular diameter. An antitumor effect can be quantitated by T/C, which is calculated as (Treated tumor volume/Control tumor volume)×100%.

TNFα production = assay: LPS-induced TNFα production in J774A.1 cells (ELISA); assay type: cell-based; details: Mus musculus, J774.A1, 24 hr
Protocol: as §1, with “TNFα” for “PGE2”, “(BD Biosciences).” for “(GE Healthcare).”

[2] = test system: xenograft human prostate PC-3 tumor; assay: Xenograft human prostate PC-3 tumor in nude mice; assay type: in vivo, mouse; details: FIG. 10A; CD1 nu/nu mice; compound IV 5 mg/kg
Protocol: PC-3 cells were grown in RPMI-1640 containing 10% fetal bovine serum. […] The animals were then serially monitored by manual palpation for evidence of tumor. […] Serial tumor volume was obtained by bi-dimensional diameter measurements with calipers, using the formula 0.4 (a×b^2) where “a” was the major tumor diameter and “b” the minor perpendicular diameter.

NZB×NZW mice = assay: Systemic lupus erythematosus model, NZB×NZW mice; assay type: in vivo; details: IV once a week from week 10 to week 46; FIG. 12
Description: New Zealand mice of the F1 hybrid cross NZB×NZW develop most of the autoimmune abnormalities seen in human SLE and die from SLE-like immune complex (IC)-mediated glomerulonephritis. The mice develop high titers of anti-DNA (double-strand and single-strand) and nuclear extract (NE) antibodies, as well as SLE-related clinical manifestations including leukopenia, thrombocytopenia, proteinuria, and glomerulonephritis. These mice develop anti-DNA antibodies after the age of three months, with a peak of anti-DNA antibody response occurring at seven months. Subsequently, the serum concentration of anti-DNA antibodies declines, presumably as a consequence of progressive uremia. The first serological manifestations of the disease occurs at about 150 days (i.e., five months). Their survival is evaluated at approximately 250 days.
Intravenous administration of compound or vehicle was undertaken once a week from week 10 to week 46.

DA-3 breast tumor = assay: Primary DA-3 breast tumor in mice; assay type: in vivo; details: FIG. 4B; compound I IV 50 mg/kg, alone or with cyclophosphamide; up to day 35
[3] = twelve hours after induction, FIG. 21B
[4] = twelve hours post-LPS induction, FIG. 21A
[5] = two hours after induction, FIG. 20A
[6] = two hours after induction, FIG. 20B

Row | Compound | EGF-induced PC-3 migration or invasion (PC-3 cells; 1 μM to 10 μM) | PGE2 production induced by LPS [1, 3] | TNFα production induced by LPS [1, 4] | TNFα production induced by LPS [1, 5] | PGE2 production induced by LPS [1, 6] | LTB4 production induced by LPS ([1]; two hours after induction) | MCP-1 production induced by LPS ([1]; two hours after induction) | white blood cell count [1] | IC50 (PGE2 production) [µM] | T/C (treated/control tumor volume) (B16F10 melanoma) | IC50 (TNFα production) [µM] | effect on PC-3 tumor growth [2] | EGF-induced PC-3 migration or invasion (PC-3 cells; 1 μM to 20 μM) | mortality of NZB×NZW mice (NZB×NZW mice) | effect on DA-3 tumor growth (DA-3 breast tumor)
1 | NCCCCCNc1nc(NCCc2ccc(O)cc2)nc(Nc2ccc(F)cc2)n1 [Compound V] | inhibition of the EGF-induced PC-3 migration or invasion | significant inhibition | significant inhibition | significant inhibition | significant inhibition | weak inhibition | weak inhibition | significant inhibition | 2 | < 40% | 13 |  |  |  | 
2 | NCCCCCNc1nc(NCCc2ccc(S(N)(=O)=O)cc2)nc(Nc2cccc(F)c2)n1 [Compound II] |  | weak and insignificant increase | no effect | increase the concentration of TNFα | weak and insignificant inhibition | weak inhibition | no influence | significant inhibition |  | around 80% |  | cytostatic (no growth) effect up to day 42 |  |  | 
3 | NCCCCCNc1nc(NCCc2ccc(O)cc2)nc(Nc2cccc(F)c2)n1 [Compound I] |  |  |  |  |  |  |  |  |  | around 80% | 29 |  | inhibition of the EGF-induced PC-3 migration or invasion | reduces the mortality | weak inhibitory effect
